{"source": "paper PMC5238504", "about": "(Scientific Reports, 2017)", "key": {"[1]": {"target": "T1, M2 muscarinic receptor (M2 wt) (Homo sapiens, UniProt P08172)", "T1 construct": "gene CHRM2", "T1 sequence (P08172 1-466)": "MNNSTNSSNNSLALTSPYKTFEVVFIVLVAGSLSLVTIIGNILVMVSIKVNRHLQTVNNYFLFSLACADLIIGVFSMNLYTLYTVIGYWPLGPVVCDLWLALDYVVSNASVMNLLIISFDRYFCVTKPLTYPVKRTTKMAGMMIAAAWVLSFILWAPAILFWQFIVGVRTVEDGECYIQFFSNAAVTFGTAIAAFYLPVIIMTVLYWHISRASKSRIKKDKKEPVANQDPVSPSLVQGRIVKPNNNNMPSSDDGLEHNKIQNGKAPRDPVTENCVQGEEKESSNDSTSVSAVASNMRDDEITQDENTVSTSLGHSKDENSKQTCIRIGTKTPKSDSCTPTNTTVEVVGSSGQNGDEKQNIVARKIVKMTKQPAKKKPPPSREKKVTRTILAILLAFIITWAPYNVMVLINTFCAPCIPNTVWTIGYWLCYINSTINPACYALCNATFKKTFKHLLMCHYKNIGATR", "assay": "slowing of [3H]NMS dissociation by cold NMS, CHO membranes", "format": "binding", "conditions": "second site; allosteric; apparent affinity for the receptor-[3H]NMS complex; slope factor nH fitted; pH […] °C, […] NaCl, […] MgCl2"}, "[2]": {"target": "T2, M5 muscarinic receptor (Homo sapiens, UniProt P08912)", "T2 construct": "gene CHRM5; expressed in CHO cells, membranes; species printed only for M2 and M3", "T2 sequence (P08912 1-532)": "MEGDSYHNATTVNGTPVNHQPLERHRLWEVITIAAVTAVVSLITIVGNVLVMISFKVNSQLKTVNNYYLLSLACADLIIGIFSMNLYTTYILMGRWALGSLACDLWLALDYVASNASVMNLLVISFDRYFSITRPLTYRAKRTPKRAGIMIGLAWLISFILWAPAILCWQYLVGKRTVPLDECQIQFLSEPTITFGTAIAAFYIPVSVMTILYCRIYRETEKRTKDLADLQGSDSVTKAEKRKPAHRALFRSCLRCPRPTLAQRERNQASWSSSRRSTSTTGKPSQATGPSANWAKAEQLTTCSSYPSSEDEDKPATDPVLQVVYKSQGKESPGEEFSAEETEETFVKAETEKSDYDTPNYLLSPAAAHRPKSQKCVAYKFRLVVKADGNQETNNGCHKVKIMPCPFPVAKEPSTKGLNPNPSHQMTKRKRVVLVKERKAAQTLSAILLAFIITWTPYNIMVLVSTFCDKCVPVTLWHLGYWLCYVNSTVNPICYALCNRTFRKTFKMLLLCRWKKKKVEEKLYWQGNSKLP", "assay": "slowing of [3H]NMS dissociation by cold NMS, CHO membranes", "format": "binding", "conditions": "second site; allosteric; apparent affinity for the receptor-[3H]NMS complex; slope factor nH fitted; pH […] °C, […] NaCl, […] MgCl2"}}, "data": [{"smiles": "C[N+]1(C)[C@@H]2C[C@@H](OC(=O)[C@H](CO)c3ccccc3)C[C@H]1[C@@H]1O[C@@H]12", "note": "[N-methylscopolamine]", "values": [{"measurement": "NMS / pKA", "setting": "[1]", "value": "3.62 ± 0.03", "unit": "negative logarithm"}, {"measurement": "NMS / pKA", "setting": "[2]", "value": "3.86 ± 0.03", "unit": "negative logarithm"}]}]}
